According to PubChem BioAssay AID330 (DTP/NCI, 2004):
Values joined by “and” are separate entries in the source; they are usually repeats but may differ in a detail not shown here. Equal entries are not always repeated. Inconclusive results and toxic doses are left out. The calls were made as follows: active = survival T/C of 150% or more; inactive = T/C below 125% in these data.

Test system: P388 leukemia ip, CD2F1 mice, survival T/C
Test: NCI In Vivo Anticancer Drug Screen. Data for tumor model P388 Leukemia (intraperitoneal) in CD2F1 (CDF1) mice
Details: endpoint: median survival time, higher = longer survival
Method in brief: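 Mice carrying the transplanted tumor received test compound or vehicle. Survival was recorded in each group, and the value is the treated-group measurement divided by that of the vehicle-treated control group.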

[1] = dose: 50.0 mg/kg/injection, schedule: Q01DX005 (ip), vehicle: Klucel (hydroxypropylcellulose) (HPC)
[2] = dose: 100.0 mg/kg/injection, schedule: Q01DX005 (ip), vehicle: Klucel (hydroxypropylcellulose) (HPC)
[3] = dose: 200.0 mg/kg/injection, schedule: Q01DX005 (ip), vehicle: Klucel (hydroxypropylcellulose) (HPC)
[4] = dose: 50.0 mg/kg/injection, schedule: Q01DX005 (ip), vehicle: saline with Tween-80
[5] = dose: 100.0 mg/kg/injection, schedule: Q01DX005 (ip), vehicle: saline with Tween-80
[6] = dose: 60.0 mg/kg/injection, schedule: Q01DX005 (ip), vehicle: saline with Tween-80
[7] = dose: 120.0 mg/kg/injection, schedule: Q01DX005 (ip), vehicle: saline with Tween-80
[8] = dose: 240.0 mg/kg/injection, schedule: Q01DX005 (ip), vehicle: saline with Tween-80
[9] = dose: 100.0 mg/kg/injection, schedule: Q01DX001 (ip), vehicle: saline with Tween-80
[10] = dose: 200.0 mg/kg/injection, schedule: Q01DX001 (ip), vehicle: saline with Tween-80
[11] = dose: 50.0 mg/kg/injection, schedule: Q01DX009 (ip), vehicle: saline with Tween-80
[12] = dose: 50.0 mg/kg/injection, schedule: Q01DX009 (ip), vehicle: Klucel (hydroxypropylcellulose) (HPC)
[13] = dose: 100.0 mg/kg/injection, schedule: Q01DX009 (ip), vehicle: Klucel (hydroxypropylcellulose) (HPC)
[14] = dose: 200.0 mg/kg/injection, schedule: Q01DX009 (ip), vehicle: Klucel (hydroxypropylcellulose) (HPC)
[15] = dose: 100.0 mg/kg/injection, schedule: Q04DX003 (ip), vehicle: Klucel (hydroxypropylcellulose) (HPC)
[16] = dose: 200.0 mg/kg/injection, schedule: Q04DX003 (ip), vehicle: Klucel (hydroxypropylcellulose) (HPC)
[17] = dose: 50.0 mg/kg/injection, schedule: Q01DX001 (ip), vehicle: saline with Tween-80
[18] = dose: 12.5 mg/kg/injection, schedule: Q01DX001 (ip), vehicle: saline with Tween-80
[19] = dose: 25.0 mg/kg/injection, schedule: Q01DX001 (ip), vehicle: saline with Tween-80
[20] = dose: 200.0 mg/kg/injection, schedule: Q01DX005 (ip), vehicle: saline with Tween-80

Measured: T/C

[Br][Sn]([Br])([CH2]c1ccccc1)[c]1ccccc1
inactive: dose: 1.56 mg/kg/injection, schedule: Q04DX003 (ip), vehicle: saline 101 % of control and 102 % of control | dose: 3.12 mg/kg/injection, schedule: Q04DX003 (ip), vehicle: saline 99 % of control and 102 % of control | dose: 6.25 mg/kg/injection, schedule: Q04DX003 (ip), vehicle: saline with Tween-80 118 % of control | dose: 6.25 mg/kg/injection, schedule: Q04DX003 (ip), vehicle: saline 105 % of control and 106 % of control | dose: 12.5 mg/kg/injection, schedule: Q04DX003 (ip), vehicle: saline 99 % of control and 104 % of control

CCCn1c2nc(=O)n(C)c(=O)c-2cc2ccccc21
inactive: dose: 10.0 mg/kg/injection, schedule: Q01DX009 (ip), vehicle: saline with Tween-80 105 % of control | dose: 20.0 mg/kg/injection, schedule: Q01DX009 (ip), vehicle: saline with Tween-80 116 % of control | dose: 40.0 mg/kg/injection, schedule: Q01DX009 (ip), vehicle: saline with Tween-80 111 % of control

Cc1ccc(S(=O)c2ccccc2C(O)(C(F)(F)F)C(F)(F)F)cc1 (configuration not stated)
inactive: [1] 99 % of control | [2] 99 % of control | [3] 92 % of control

O=[N+]([O-])c1ccc(O)c(/C=N\NS(=O)(=O)c2ccc(F)cc2)c1
inactive: [4] 103 % of control | [5] 93 % of control

CN1C=C/C(=C/[N+](=O)[O-])N(C)C1=O
inactive: dose: 25.0 mg/kg/injection, schedule: Q01DX005 (ip), vehicle: Klucel (hydroxypropylcellulose) (HPC) 99 % of control | [1] 105 % of control | [2] 100 % of control | [3] 112 % of control

Nc1ncc2c(n1)CSCC2=O
inactive: [6] 98 % of control | [7] 100 % of control | [8] 90 % of control

Cc1csc2cc(Br)c3ccccc3c12
inactive: [9] 101 % of control | [10] 103 % of control

COc1ccc(NC(Cc2ccccc2)=NC(C)(C)C)cc1
inactive: [11] 98 % of control | dose: 100.0 mg/kg/injection, schedule: Q01DX009 (ip), vehicle: saline with Tween-80 89 % of control | dose: 200.0 mg/kg/injection, schedule: Q01DX009 (ip), vehicle: saline with Tween-80 94 % of control

O=C(Nc1cc(-c2ccccc2)[nH]n1)c1ccccc1
inactive: [6] 103 % of control | [7] 106 % of control | [8] 100 % of control

N#CC1C(=O)NC(=S)NC1c1ccccc1 (configuration not stated)
inactive: [12] 95 % of control | [13] 101 % of control | [14] 98 % of control

COc1ccc(Oc2ccc(C(=O)C(CN(C)C)CN(C)C)cc2)cc1
inactive: dose: 3.75 mg/kg/injection, schedule: Q01DX005 (ip), vehicle: saline 121 % of control | dose: 7.5 mg/kg/injection, schedule: Q01DX005 (ip), vehicle: saline 124 % of control | dose: 30.0 mg/kg/injection, schedule: Q01DX005 (ip), vehicle: saline 88 % of control

c1ccc(CNCc2ccccc2)cc1
inactive: dose: 50.0 mg/kg/injection, schedule: Q04DX003 (ip), vehicle: Klucel (hydroxypropylcellulose) (HPC) 95 % of control | [15] 95 % of control | [16] 100 % of control

CCC(=O)Nc1ccc(C(=O)NCCN(CC)CC)cc1
inactive: [1] 105 % of control | [2] 104 % of control | [3] 100 % of control

C[C@]12CC[C@H](O)CC1=CC[C@@H]1[C@@H]2CC[C@]2(C)c3nc4ccccc4cc3C[C@@H]12
inactive: dose: 12.5 mg/kg/injection, schedule: Q01DX009 (ip), vehicle: saline with Tween-80 104 % of control | dose: 12.5 mg/kg/injection, schedule: Q04DX003 (ip), vehicle: saline with Tween-80 100 % of control | dose: 25.0 mg/kg/injection, schedule: Q01DX009 (ip), vehicle: saline with Tween-80 100 % of control | dose: 25.0 mg/kg/injection, schedule: Q04DX003 (ip), vehicle: saline with Tween-80 100 % of control | [11] 95 % of control | dose: 50.0 mg/kg/injection, schedule: Q04DX003 (ip), vehicle: saline with Tween-80 90 % of control

O=C1COc2ccc(F)cc2N1
inactive: dose: 60.0 mg/kg/injection, schedule: Q01DX005 (ip), vehicle: Klucel (hydroxypropylcellulose) (HPC) 102 % of control and 103 % of control | dose: 120.0 mg/kg/injection, schedule: Q01DX005 (ip), vehicle: Klucel (hydroxypropylcellulose) (HPC) 101 % of control and 96 % of control | dose: 240.0 mg/kg/injection, schedule: Q01DX005 (ip), vehicle: Klucel (hydroxypropylcellulose) (HPC) 101 % of control and 102 % of control

CC(=O)N(C)OS(=O)(=O)c1ccc(C)cc1
inactive: [17] 102 % of control | [9] 105 % of control | [10] 105 % of control | dose: 400.0 mg/kg/injection, schedule: Q01DX001 (ip), vehicle: saline with Tween-80 95 % of control

c1ccc2c(c1)-c1ccccc1C1NC21 (configuration not stated)
inactive: [18] 99 % of control and 110 % of control | [19] 105 % of control and 110 % of control and 123 % of control | [17] 113 % of control | [4] 112 % of control | [9] 113 % of control | [5] 110 % of control | [20] 119 % of control

Cc1cc(-c2c(C)[nH]n(-c3nc4ccc(F)cc4s3)c2=O)n(-c2nc3ccc(F)cc3s2)n1
inactive: dose: 15.0 mg/kg/injection, schedule: Q01DX005 (ip), vehicle: saline with Tween-80 96 % of control | dose: 30.0 mg/kg/injection, schedule: Q01DX005 (ip), vehicle: saline with Tween-80 95 % of control | [6] 100 % of control and 92 % of control

O=C1c2ccccc2S(=O)(=O)CC12OC2c1ccc(Cl)cc1 (configuration not stated)
inactive: dose: 100.0 mg/kg/injection, schedule: Q04DX002 (ip), vehicle: saline with Tween-80 88 % of control | dose: 200.0 mg/kg/injection, schedule: Q04DX002 (ip), vehicle: saline with Tween-80 88 % of control | dose: 400.0 mg/kg/injection, schedule: Q04DX002 (ip), vehicle: saline with Tween-80 94 % of control

CN1C(=O)C(=O)N2c3ccc(Cl)cc3C3(c4ccccc4)N=CC12O3 (configuration not stated)
inactive: [15] 109 % of control | [16] 112 % of control | dose: 400.0 mg/kg/injection, schedule: Q04DX003 (ip), vehicle: Klucel (hydroxypropylcellulose) (HPC) 113 % of control

CC(=O)n1oc2c(Br)cc(Br)cc2c1=O
inactive: [1] 116 % of control | [2] 103 % of control | [3] 107 % of control

CCOC(=O)c1ccc(NC(CCN2CCN(CCC(=NC(C)(C)C)Nc3ccc(C(=O)OCC)cc3)CC2)=NC(C)(C)C)cc1
inactive: [12] 96 % of control | [13] 92 % of control | [14] 90 % of control

CC(C)(C)NC(Cc1ccccc1)=NC1CCCCC1
inactive: dose: 12.5 mg/kg/injection, schedule: Q04DX002 (ip), vehicle: saline 103 % of control | dose: 25.0 mg/kg/injection, schedule: Q04DX002 (ip), vehicle: saline 101 % of control

CCOC(=O)C1=C(Nc2ccc(F)cc2)C(=O)N(CC)C1
inactive: [6] 100 % of control | [7] 102 % of control | [8] 93 % of control

C/C=C/c1cc(OC)c2c(c1)[C@H](C)C(c1ccc(O)c(OC)c1)O2 (some centres not stated)
inactive: dose: 37.5 mg/kg/injection, schedule: Q01DX005 (ip), vehicle: Klucel (hydroxypropylcellulose) (HPC) 106 % of control | dose: 75.0 mg/kg/injection, schedule: Q01DX005 (ip), vehicle: Klucel (hydroxypropylcellulose) (HPC) 97 % of control | dose: 150.0 mg/kg/injection, schedule: Q01DX005 (ip), vehicle: Klucel (hydroxypropylcellulose) (HPC) 95 % of control

COC(=O)C1(C)CC2C(C)(CCC3(C)C4=CC=C5C(=CC(=O)C(O)=C5C)C4(C)CCC23C)CC1O (configuration not stated)
inactive: dose: 6.25 mg/kg/injection, schedule: Q01DX001 (ip), vehicle: saline with Tween-80 100 % of control | [18] 99 % of control | [19] 99 % of control | [9] 100 % of control

CCCCCCCCCSc1nc2ccc(N=Cc3ccccc3O)cc2s1
inactive: dose: 12.5 mg/kg/injection, schedule: Q01DX009 (ip), vehicle: Klucel (hydroxypropylcellulose) (HPC) 100 % of control | dose: 25.0 mg/kg/injection, schedule: Q01DX009 (ip), vehicle: Klucel (hydroxypropylcellulose) (HPC) 100 % of control | [12] 91 % of control and 92 % of control | [14] 90 % of control

O=C1c2ccccc2C(=O)c2c(O)c(NCCCN(CCO)CCO)cc(O)c21
inactive: [4] 101 % of control | [5] 109 % of control | [20] 113 % of control

Cc1ccc(S(=O)(=O)N2CCC(N)=N2)cc1
inactive: [1] 93 % of control | [2] 98 % of control | [3] 90 % of control
